Drawing on ChEMBL document CHEMBL5465560, “Selectivity Literature for EUbOPEN Chemogenomic Library” (2024), this text covers % of control, % of inhibition and % binding for nine compounds.

Assay [1] deals with T1, Cytoplasmic tyrosine-protein kinase BMX (Homo sapiens) (UniProt P51813).
T1 sequence (whole entry): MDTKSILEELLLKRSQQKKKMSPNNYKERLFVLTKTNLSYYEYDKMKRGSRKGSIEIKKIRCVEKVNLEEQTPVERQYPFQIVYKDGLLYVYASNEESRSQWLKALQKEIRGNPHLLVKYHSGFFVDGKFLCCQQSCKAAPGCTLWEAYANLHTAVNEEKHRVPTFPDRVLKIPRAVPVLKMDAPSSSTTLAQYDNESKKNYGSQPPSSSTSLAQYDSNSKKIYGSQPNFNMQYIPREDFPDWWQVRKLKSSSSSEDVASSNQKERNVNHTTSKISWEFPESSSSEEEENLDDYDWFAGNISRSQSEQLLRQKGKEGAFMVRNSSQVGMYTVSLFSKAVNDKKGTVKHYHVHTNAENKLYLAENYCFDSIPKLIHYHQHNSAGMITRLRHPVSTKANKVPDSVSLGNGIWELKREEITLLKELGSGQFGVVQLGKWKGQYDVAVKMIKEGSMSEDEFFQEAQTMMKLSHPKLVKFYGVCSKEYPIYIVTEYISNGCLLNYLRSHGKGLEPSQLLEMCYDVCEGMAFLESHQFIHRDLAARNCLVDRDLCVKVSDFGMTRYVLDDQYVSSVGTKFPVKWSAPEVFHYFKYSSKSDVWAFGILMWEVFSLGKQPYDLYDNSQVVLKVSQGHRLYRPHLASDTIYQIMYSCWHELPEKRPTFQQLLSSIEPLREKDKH
The settings on record: at 10 µM.

The target of assay [2] is Cyclin-dependent kinase 7 (Homo sapiens, UniProt P50613). In words: Selectivity interaction (KinomeScan (DiscoverX)) EUB0001049a CDK7. The settings on record: at 1 µM.
Assay [3] has as its target Beta-2 adrenergic receptor (Homo sapiens, UniProt P07550). The assay can be described thus: Selectivity interaction (Eurofins CEREP Diversity Profile (receptors and ion channels)) EUB0000279b ADRB2. The settings on record: at 10 µM.
Assay [4] concerns the target Tyrosine-protein kinase BTK (Homo sapiens, UniProt Q06187). The settings on record: at 1 µM.
In assay [5] the target is Cyclin-dependent kinase 11B (Homo sapiens) (UniProt P21127). The assay can be described thus: Selectivity interaction (KinomeScan (DiscoverX)) EUB0000045b CDK11B.
The target of assay [6] is Mitogen-activated protein kinase kinase kinase kinase 5 (Homo sapiens) (UniProt Q9Y4K4). In words: Selectivity interaction (SelectScreen profiling (Invitrogen)) EUB0000607a MAP4K5. The settings on record: at 2 µM.
Assay [7] deals with Mitogen-activated protein kinase 14 (Homo sapiens, UniProt Q16539). The assay can be described thus: Selectivity interaction (ActivX KiNativ screen (kinase selectivity in THP-1 cell lysates)) EUB0000639a MAPK14. Type of assay: subcellular. Particulars: lysate, at 1 µM.
Assay [8] concerns the target T2, Dual specificity mitogen-activated protein kinase kinase 7 (Homo sapiens) (UniProt O14733).
T2 sequence (whole entry): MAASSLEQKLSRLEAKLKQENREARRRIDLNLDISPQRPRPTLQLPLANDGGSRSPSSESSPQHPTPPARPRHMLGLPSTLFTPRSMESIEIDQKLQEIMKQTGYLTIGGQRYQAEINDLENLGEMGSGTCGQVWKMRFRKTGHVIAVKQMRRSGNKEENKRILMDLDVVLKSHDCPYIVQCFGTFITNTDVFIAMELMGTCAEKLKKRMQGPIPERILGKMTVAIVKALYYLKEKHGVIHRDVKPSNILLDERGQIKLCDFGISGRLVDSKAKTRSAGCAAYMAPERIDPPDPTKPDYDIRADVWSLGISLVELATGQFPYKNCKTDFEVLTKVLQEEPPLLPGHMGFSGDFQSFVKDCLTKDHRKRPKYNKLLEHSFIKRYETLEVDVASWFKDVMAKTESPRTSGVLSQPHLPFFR
In words: Selectivity interaction (ActivX KiNativ screen (kinase selectivity in THP-1 cell lysates)) EUB0000639a MAP2K7. The settings on record: lysate. Type of assay: subcellular.

The target in assay [9] is Phosphatidylinositol 4,5-bisphosphate 3-kinase catalytic subunit beta isoform (Homo sapiens) (UniProt P42338). The assay can be described thus: Selectivity interaction (KinomeScan (DiscoverX)) EUB0000229b PIK3CB. The settings on record: at 10 µM.
Assay [10] has as its target T3, Cyclin-dependent kinase 11A (Homo sapiens) (UniProt Q9UQ88).
T3 sequence (whole entry): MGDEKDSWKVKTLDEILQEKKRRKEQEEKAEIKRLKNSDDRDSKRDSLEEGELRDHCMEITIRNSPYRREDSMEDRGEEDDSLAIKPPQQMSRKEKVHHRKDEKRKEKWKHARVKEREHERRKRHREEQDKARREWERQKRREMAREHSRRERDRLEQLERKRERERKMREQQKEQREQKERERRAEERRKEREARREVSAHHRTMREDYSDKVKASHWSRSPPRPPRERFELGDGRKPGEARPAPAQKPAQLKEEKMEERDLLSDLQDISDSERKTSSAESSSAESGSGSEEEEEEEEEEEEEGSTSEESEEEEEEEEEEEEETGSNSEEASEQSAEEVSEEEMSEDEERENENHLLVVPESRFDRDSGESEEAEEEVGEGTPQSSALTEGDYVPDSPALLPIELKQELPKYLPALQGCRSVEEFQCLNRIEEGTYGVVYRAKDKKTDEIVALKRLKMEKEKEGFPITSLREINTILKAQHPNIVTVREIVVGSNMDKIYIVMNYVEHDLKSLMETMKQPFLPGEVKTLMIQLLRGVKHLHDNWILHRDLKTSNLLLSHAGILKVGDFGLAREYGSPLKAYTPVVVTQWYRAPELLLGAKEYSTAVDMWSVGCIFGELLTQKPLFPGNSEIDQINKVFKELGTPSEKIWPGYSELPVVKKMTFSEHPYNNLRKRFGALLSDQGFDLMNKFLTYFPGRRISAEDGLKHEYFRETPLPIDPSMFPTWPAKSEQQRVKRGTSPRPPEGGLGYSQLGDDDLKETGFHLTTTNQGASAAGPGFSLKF
The assay can be described thus: Selectivity interaction (KinomeScan (DiscoverX)) EUB0000595a CDK11A. The settings on record: at 10 µM.

In assay [11] the target is DNA-dependent protein kinase catalytic subunit (Homo sapiens) (UniProt P78527). In words: Selectivity interaction (ActivX KiNativ screen (ex vivo kinase selectivity in human PBMCs)) EUB0001619a PRKDC. It counts as cell-based. The settings on record: PBMC, at 1 µM.

Sequence of Cyclin-dependent kinase 11B (Homo sapiens) (P21127 whole entry): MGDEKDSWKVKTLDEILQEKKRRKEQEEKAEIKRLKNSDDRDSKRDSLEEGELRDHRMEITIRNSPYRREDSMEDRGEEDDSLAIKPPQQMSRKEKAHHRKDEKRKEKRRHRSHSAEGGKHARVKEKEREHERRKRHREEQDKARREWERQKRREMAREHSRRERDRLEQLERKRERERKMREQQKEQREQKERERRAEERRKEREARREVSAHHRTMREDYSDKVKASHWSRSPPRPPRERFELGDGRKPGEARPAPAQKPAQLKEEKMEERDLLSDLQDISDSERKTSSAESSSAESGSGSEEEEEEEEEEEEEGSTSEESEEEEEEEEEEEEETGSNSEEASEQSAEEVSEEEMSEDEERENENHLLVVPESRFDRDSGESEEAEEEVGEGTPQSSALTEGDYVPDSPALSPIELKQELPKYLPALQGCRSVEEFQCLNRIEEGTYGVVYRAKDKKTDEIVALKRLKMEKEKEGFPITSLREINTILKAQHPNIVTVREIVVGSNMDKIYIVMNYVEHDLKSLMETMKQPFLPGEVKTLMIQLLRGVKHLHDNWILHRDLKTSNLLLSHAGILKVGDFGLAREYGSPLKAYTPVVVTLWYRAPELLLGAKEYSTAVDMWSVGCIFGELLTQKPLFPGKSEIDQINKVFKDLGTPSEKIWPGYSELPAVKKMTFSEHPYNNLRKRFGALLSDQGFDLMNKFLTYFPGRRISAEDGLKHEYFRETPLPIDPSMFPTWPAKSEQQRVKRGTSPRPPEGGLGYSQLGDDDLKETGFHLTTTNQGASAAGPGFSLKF
Sequence of Tyrosine-protein kinase BTK (Q06187 whole entry): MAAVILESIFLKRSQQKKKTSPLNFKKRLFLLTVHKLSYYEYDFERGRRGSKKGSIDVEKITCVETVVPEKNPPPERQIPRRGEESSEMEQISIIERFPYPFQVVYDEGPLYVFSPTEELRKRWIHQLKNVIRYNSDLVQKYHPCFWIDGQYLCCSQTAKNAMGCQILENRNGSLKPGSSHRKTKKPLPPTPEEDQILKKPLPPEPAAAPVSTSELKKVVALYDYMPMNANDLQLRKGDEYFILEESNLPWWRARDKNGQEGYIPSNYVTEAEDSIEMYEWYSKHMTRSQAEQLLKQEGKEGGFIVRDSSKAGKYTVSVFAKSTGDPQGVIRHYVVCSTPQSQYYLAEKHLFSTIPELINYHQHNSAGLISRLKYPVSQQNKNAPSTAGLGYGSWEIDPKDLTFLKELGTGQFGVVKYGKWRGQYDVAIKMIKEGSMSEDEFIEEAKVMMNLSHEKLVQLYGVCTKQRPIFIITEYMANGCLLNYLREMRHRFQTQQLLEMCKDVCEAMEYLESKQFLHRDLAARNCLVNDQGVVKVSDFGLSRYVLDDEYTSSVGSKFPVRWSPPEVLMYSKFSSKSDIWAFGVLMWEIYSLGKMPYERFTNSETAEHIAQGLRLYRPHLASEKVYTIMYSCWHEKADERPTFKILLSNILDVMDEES
Sequence of Cyclin-dependent kinase 7 (P50613 whole entry): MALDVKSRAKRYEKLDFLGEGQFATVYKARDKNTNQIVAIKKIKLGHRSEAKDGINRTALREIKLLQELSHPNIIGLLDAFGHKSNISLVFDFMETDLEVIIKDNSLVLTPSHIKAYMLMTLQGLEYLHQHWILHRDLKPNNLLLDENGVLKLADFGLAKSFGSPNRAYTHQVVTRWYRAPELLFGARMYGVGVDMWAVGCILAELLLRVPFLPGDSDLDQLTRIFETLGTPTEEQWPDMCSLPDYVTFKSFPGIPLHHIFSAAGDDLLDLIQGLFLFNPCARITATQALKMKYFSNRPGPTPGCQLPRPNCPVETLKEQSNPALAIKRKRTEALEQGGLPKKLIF
Sequence of Mitogen-activated protein kinase kinase kinase kinase 5 (Homo sapiens) (Q9Y4K4 whole entry, looked up): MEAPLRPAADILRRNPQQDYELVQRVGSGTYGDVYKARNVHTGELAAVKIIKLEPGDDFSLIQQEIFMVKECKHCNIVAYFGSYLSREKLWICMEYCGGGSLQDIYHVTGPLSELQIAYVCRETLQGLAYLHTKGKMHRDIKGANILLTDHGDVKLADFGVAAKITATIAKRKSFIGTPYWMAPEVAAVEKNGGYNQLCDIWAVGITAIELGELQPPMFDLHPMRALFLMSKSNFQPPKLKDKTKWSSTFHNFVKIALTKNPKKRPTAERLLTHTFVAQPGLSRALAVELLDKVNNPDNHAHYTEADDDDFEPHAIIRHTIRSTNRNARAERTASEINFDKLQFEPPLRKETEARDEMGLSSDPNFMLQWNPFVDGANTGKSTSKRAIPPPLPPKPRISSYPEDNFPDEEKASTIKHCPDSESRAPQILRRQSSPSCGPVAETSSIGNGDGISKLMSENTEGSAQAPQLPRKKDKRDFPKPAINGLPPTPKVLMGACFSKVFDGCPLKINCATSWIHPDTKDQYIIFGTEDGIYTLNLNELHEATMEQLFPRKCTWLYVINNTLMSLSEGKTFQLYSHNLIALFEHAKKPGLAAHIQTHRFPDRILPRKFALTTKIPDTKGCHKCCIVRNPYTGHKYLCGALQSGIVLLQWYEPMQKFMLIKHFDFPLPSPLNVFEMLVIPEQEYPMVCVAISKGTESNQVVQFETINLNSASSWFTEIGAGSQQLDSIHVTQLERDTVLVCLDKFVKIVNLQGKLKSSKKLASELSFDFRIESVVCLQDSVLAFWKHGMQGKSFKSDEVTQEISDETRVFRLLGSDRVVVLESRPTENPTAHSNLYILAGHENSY
Sequence of Beta-2 adrenergic receptor (P07550 whole entry, looked up): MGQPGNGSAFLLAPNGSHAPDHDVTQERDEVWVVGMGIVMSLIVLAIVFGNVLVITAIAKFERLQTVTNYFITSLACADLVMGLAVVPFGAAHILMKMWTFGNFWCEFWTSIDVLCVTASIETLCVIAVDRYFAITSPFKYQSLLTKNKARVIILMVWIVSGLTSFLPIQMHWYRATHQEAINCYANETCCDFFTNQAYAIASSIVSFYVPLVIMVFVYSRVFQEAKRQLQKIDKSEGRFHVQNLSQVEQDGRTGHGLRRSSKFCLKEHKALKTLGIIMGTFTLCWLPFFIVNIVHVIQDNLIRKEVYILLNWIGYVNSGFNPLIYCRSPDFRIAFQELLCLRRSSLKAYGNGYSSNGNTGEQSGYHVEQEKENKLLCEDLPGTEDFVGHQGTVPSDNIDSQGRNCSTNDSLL
Sequence of Mitogen-activated protein kinase 14 (Q16539 whole entry): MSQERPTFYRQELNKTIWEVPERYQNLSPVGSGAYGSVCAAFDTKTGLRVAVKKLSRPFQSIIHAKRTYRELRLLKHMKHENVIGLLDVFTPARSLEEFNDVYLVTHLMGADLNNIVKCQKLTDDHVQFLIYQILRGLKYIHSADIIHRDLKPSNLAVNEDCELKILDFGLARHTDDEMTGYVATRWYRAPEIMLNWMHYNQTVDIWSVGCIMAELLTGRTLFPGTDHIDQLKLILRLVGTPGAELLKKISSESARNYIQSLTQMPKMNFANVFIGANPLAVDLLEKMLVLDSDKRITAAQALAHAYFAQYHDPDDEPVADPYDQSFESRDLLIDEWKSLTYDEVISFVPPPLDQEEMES
Sequence of Phosphatidylinositol 4,5-bisphosphate 3-kinase catalytic subunit beta isoform (Homo sapiens) (P42338 whole entry, looked up, canonical isoform): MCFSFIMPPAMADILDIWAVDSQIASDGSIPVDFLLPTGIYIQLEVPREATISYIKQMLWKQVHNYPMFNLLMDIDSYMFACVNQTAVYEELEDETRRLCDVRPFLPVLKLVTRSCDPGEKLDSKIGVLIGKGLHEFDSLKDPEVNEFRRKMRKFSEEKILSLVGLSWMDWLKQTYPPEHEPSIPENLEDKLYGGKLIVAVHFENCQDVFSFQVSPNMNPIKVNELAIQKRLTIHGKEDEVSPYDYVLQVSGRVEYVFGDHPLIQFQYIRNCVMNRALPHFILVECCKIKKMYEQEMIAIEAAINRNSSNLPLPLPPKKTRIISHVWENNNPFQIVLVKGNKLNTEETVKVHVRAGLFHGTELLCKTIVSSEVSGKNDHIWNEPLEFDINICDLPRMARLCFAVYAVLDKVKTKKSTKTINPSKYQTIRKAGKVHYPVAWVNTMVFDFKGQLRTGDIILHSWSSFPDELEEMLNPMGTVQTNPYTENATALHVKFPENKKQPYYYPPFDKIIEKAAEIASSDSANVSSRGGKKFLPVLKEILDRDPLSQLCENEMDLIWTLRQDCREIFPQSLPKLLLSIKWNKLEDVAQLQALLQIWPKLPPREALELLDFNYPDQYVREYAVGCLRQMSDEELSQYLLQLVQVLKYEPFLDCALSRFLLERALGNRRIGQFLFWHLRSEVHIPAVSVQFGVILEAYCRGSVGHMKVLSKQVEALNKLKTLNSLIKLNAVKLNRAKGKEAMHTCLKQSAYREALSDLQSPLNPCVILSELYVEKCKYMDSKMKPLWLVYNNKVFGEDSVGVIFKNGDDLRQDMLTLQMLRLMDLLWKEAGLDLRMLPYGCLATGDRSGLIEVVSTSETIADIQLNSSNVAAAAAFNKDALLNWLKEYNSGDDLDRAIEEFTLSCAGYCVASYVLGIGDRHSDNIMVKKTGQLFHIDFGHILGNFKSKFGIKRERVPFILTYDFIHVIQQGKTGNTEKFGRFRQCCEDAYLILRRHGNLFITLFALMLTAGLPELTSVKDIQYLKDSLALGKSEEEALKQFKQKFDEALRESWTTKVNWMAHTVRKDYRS

As for `Cc1cc([C@@H](C)Nc2ccccc2C(=O)O)c2nc(N3CCOCC3)cc(=O)n2c1` [AZD-6482], the % of control in assay [1] came to 85%.
On to `COc1cc(Nc2nc(C)cc(-c3cnn4nc(OC)ccc34)n2)cc(C(F)(F)F)c1`, for which the % of control in assay [2] was found to be 73%.
`CC(=O)c1cc(-c2ccccc2OCC2CC2)c2ncccn12` displayed a % of control in assay [3] of 99%.
For `C=CC(=O)Nc1cc(-n2c(=O)ccc3cnc4ccc(-c5ccc(NS(C)(=O)=O)cc5)cc4c32)ccc1C`, the % of control came out at 1% in assay [4], 100% in assay [5] (at 1 µM) and 99% in assay [5] (at 10 µM).
For the compound `CNC(=O)Nc1ccc(-c2nc(N3CC4CCC(C3)O4)c3cnn(C4CCC5(CC4)OCCO5)c3n2)cc1`, the % of inhibition in assay [6] was determined as 19%.
In the case of `CC[C@@H]1[C@H](F)C(=O)N[C@@H]1COc1nccc2cc(C(N)=O)c(OC)cc12` [ZIMLOVISERTIB], the % of inhibition was -26.4% in [7]; 7.8% in assay [8] (at 0.01 µM); 0.6% in [8] (at 0.04 µM); 2.5% in assay [8] (at 0.2 µM); 2.2% in assay [8] (at 1 µM); -7.1% in assay [8] (at 5 µM).
Consider `COc1cc(N(C)c2ccnc3ccc(C(F)(F)F)cc23)cc(OC)c1OC`, for which the % binding in [9] amounted to 63%.
In turn, `COCC(=O)NC/C=C/c1ccc2ncnc(Nc3ccc(Oc4ccc(C)nc4)c(C)c3)c2c1` [CP-724714] displayed a % of control in assay [10] of 100%.
As for `N#Cc1cccc(-c2c[nH]c3ncnc(N4CCOCC4)c23)c1`, the % of inhibition in assay [11] is -6%.
